Assay results: ChEMBL document CHEMBL1201862, “PubChem BioAssay data set” (2004)
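Protocol summary: plate cells (96-well), add compound at 5 concentrations, incubate 48 h, interpolate endpoints linearly. Abbreviation: GI50, concentration required for 50% inhibition of growth.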 The source made the active and inactive calls. No stated cut-off is given here; in the data, active = GI50 up to about 1.1 µM and inactive = higher.

Columns and labels:
Assay in all cases: growth of human tumour cells (NCI), 48 h
KM-20L2 = test system: KM-20L2
HOP-18 = test system: HOP-18
SNB-78 = test system: SNB-78
DMS-273 = test system: DMS-273
XF498 = test system: XF498
DLD-1 = test system: DLD-1
DMS-114 = test system: DMS-114
M19-MEL = test system: M19-MEL
RXF 631 = test system: RXF 631

| SMILES | GI50 (KM-20L2) | GI50 (HOP-18) | GI50 (SNB-78) | GI50 (DMS-273) | GI50 (XF498) | GI50 (DLD-1) | GI50 (DMS-114) | GI50 (M19-MEL) | GI50 (RXF 631) |
| --- | --- | --- | --- | --- | --- | --- | --- | --- | --- |
| Cc1nc(Nc2ccccc2)sc1C(=O)CC(=O)C(=O)Nc1c(C(C)C)cccc1C(C)C | 85.1 µM (inactive) | > 100 µM (inactive) | > 100 µM (inactive) | > 100 µM (inactive) | > 100 µM (inactive) | 87.9 µM (inactive) | 81.7 µM (inactive) | > 100 µM (inactive) | – |
| C/C(CC(=O)CCC(=O)Nc1cccc(C(F)(F)F)c1)=N\NC(=O)NN | > 100 µM (inactive) | > 100 µM (inactive) | > 100 µM (inactive) | > 100 µM (inactive) | > 100 µM (inactive) | > 100 µM (inactive) | > 100 µM (inactive) | > 100 µM (inactive) | > 100 µM (inactive) |
| Cc1cc(NS(=O)(=O)c2ccc(Nc3c4ccccc4nc4c(C(=O)NCCN(C)C)ccc(Cl)c34)cc2)no1 | 11 µM (inactive) | – | 10.7 µM (inactive) | – | 13.8 µM (inactive) | 3.94 µM (inactive) | 0.867 µM (active) | 3.39 µM (inactive) | 0.851 µM (active) |
| CC[As](CC)SCC1OC(OC(C)=O)C(OC(C)=O)C(OC(C)=O)C1OC(C)=O (centres undefined) | 18.7 µM (inactive) | 16.1 µM (inactive) | 10.4 µM (inactive) | 15.6 µM (inactive) | 17.7 µM (inactive) | 16.1 µM (inactive) | 4.81 µM (inactive) | 11.8 µM (inactive) | 2.67 µM (inactive) |
| O=C1CCCC/C1=C/C=C/c1ccccc1 | 68.1 µM (inactive) | > 100 µM (inactive) | – | – | > 100 µM (inactive) | 46.9 µM (inactive) | – | 50.9 µM (inactive) | 69.2 µM (inactive) |
| Nc1nc(NC2C=C(CO)C(O)C2O)c([N+](=O)[O-])c(=O)[nH]1 (centres undefined) | > 100 µM (inactive) | > 100 µM (inactive) | > 100 µM (inactive) | > 100 µM (inactive) | > 100 µM (inactive) | > 100 µM (inactive) | > 100 µM (inactive) | > 100 µM (inactive) | – |
| O=c1c2ccccc2[nH]c2ccc3c(Cl)n[nH]c3c12 | 51.9 µM (inactive) | 33.2 µM (inactive) | 55.3 µM (inactive) | 40.3 µM (inactive) | – | 19.5 µM (inactive) | 57.7 µM (inactive) | 42.6 µM (inactive) | 37.3 µM (inactive) |
| O=C(O[C@H]1[C@@H]2C=CO[C@@H](OC3OC(CO)C(O)C(O)C3O)[C@@H]2[C@@]2(CO)O[C@@H]12)c1ccc(O)c(O)c1 (some centres undefined) | > 100 µM (inactive) | – | > 100 µM (inactive) | > 100 µM (inactive) | 41.5 µM (inactive) | > 100 µM (inactive) | – | > 100 µM (inactive) | – |
| CCOC(=O)c1ccc(/N=C\c2ccc(N(CCC#N)CCC#N)cc2)cc1 | 27.7 µM (inactive) | – | > 100 µM (inactive) | 35.9 µM (inactive) | > 100 µM (inactive) | 41.7 µM (inactive) | 70 µM (inactive) | 62.8 µM (inactive) | > 100 µM (inactive) |
| CCN(CC)c1c(C(=O)/C=C/c2ccc(Cl)cc2)c(-c2ccccc2)nn(C)c1=O | 2.47 µM (inactive) | 2.09 µM (inactive) | 2.61 µM (inactive) | 1.71 µM (inactive) | – | 1.73 µM (inactive) | 1.97 µM (inactive) | 1.69 µM (inactive) | 2.14 µM (inactive) |
| O=C(O)/C(O)=C1/C=C(c2ccccc2)c2ccccc21 | 33.7 µM (inactive) | 22 µM (inactive) | 31.4 µM (inactive) | 18.6 µM (inactive) | – | 30.1 µM (inactive) | 18.7 µM (inactive) | 22.2 µM (inactive) | 28.6 µM (inactive) |
| CC1(C)CC(C2CC(C)(C)CC(C)(C)[C@H]2O)[C@@H](O)C(C)(C)C1 (some centres undefined) | > 100 µM (inactive) | – | – | > 100 µM (inactive) | > 100 µM (inactive) | – | > 100 µM (inactive) | > 100 µM (inactive) | – |
| Cc1nc(C(N)=S)sc1C(=O)/C=C/c1c(O)ccc2ccccc12 | > 100 µM (inactive) | > 100 µM (inactive) | > 100 µM (inactive) | > 100 µM (inactive) | > 100 µM (inactive) | 72.4 µM (inactive) | 32.5 µM (inactive) | 13.8 µM (inactive) | > 100 µM (inactive) |
